Assay results reported in a flash point compilation (Sun et al. 2020).

Columns and labels:
[1] = not given; remark: listed apart in the source
[2] = not given; remark: listed apart in the source
[3] = not given; remark: listed apart in the source
[4] = not given; remark: listed apart in the source
[5] = not given; remark: listed apart in the source

Row | SMILES | flash point [°C] | flash point [3] [°C] | also measured
1 | CC1(C)CCCCC1 [1,1-dimethylcyclohexane] | 7 | – | –
2 | Cc1cc(C)c(C)c(C)c1 [1,2,3,5-tetramethylbenzene] | 63 | – | –
3 | CC1=CC(C)CCC1 (stereo unspecified) [1,3-dimethylcyclohexene] | 12 | – | –
4 | CCC(C)(C)CCl [1-Chloro-2,2-dimethylbutane] | – | – | flash point [2]: 19.1 °C
5 | CCC(C)CCl (stereo unspecified) [1-Chloro-2-methylbutane] | – | – | flash point [2]: 10 °C
6 | CCCC(C)CCl (stereo unspecified) [1-Chloro-2-methylpentane] | – | – | flash point [2]: 25.1 °C
7 | CCCC(C)CCCl (stereo unspecified) [1-Chloro-3-methylhexane] | – | – | flash point [2]: 39.2 °C
8 | CCC(C)CCCl (stereo unspecified) [1-Chloro-3-methylpentane] | – | – | flash point [2]: 25.1 °C
9 | CCCCCCCCl [1-Chloroheptane] | – | – | flash point [2]: 41.8 °C
10 | CCCCCCCCCCCCCCCCCl [1-Chlorohexadecane] | – | – | flash point [2]: 138.2 °C
11 | CCCCCCCl [1-Chlorohexane] | – | – | flash point [2]: 26.8 °C
12 | CCCCCCCCCl [1-Chlorooctane] | – | – | flash point [2]: 61.1 °C
13 | CCCCCCCCCCCCl [1-Chloroundecane] | – | – | flash point [2]: 94.5 °C
14 | CCC(C)(C)C(C)(C)C [2,2,3,3-tetramethylpentane] | 16 | – | –
15 | CCC(C)C(C)C(C)(C)C (stereo unspecified) [2,2,3,4-Tetramethylhexane] | – | 31 | –
16 | CCC(C)C(C)(C)C (stereo unspecified) [2,2,3-Trimethylpentane] | – | -3 | –
17 | CC(CC(C)(C)C)CC(C)(C)CC(C)(C)C (stereo unspecified) [2,2,4,4,6,8,8-Heptamethylnonane] | – | 95 | –
18 | CCC(C)(C)CC(C)(C)C [2,2,4,4-Tetramethylhexane] | – | 31 | –
19 | CCC(C)CC(C)(C)C (stereo unspecified) [2,2,4-Trimethylhexane] | – | 15 | –
20 | CCCCCC(C)(C)C [2,2-Dimethylheptane] | – | 24 | –
21 | CCCCC(C)(C)C [2,2-Dimethylhexane] | – | -4 | –
22 | CCCC(C)(C)C [2,2-Dimethylpentane] | – | -23 | –

Row | SMILES | flash point [°C] | flash point [3] [°C] | also measured
23 | CC(C)(C)C [2,2-Dimethylpropane] | – | -65 | –
24 | CCCCC(C)(C)C [2,2-dimethylhexane] | -3 | – | –
25 | CCCCCCC(C)(C)C [2,2-dimethyloctane] | 31 | – | –
26 | CCCC(C)(C)C(C)C [2,3,3-Trimethylhexane] | – | 15 | –
27 | CCC(C)(C)C(C)C(C)C (stereo unspecified) [2,3,4,4-Tetramethylhexane] | – | 31 | –
28 | CC(C)C(C)C(C)C(C)C (stereo unspecified) [2,3,4,5-Tetramethylhexane] | – | 31 | –
29 | CC(C)C(C)C(C)C [2,3,4-Trimethylpentane] | – | -0 | –
30 | CCCCC(C)C(C)C (stereo unspecified) [2,3-Dimethylheptane] | – | 15 | –
31 | CCCCCC(C)C(C)C (stereo unspecified) [2,3-Dimethyloctane] | – | 41 | –
32 | CCCCCC(C)C(C)C (stereo unspecified) [2,3-dimethyloctane] | 36 | – | –
33 | CCC(C)(C)CC(C)C [2,4,4-Trimethylhexane] | – | 15 | –
34 | CC(C)CC(C)CC(C)C [2,4,6-Trimethylheptane] | – | 31 | –
35 | CCCC(C)CC(C)C (stereo unspecified) [2,4-Dimethylheptane] | – | 15 | –
36 | CCC(C)CC(C)C (stereo unspecified) [2,4-Dimethylhexane] | – | 10 | –
37 | CCC(C)CCC(C)C (stereo unspecified) [2,5-dimethylheptane] | 15 | – | –
38 | CC(C)CCCCC(C)C [2,7-Dimethyloctane] | – | 41 | –
39 | CCC(C)C(C)(C)Cl (stereo unspecified) [2-Chloro-2,3-dimethylpentane] | – | – | flash point [2]: 29.8 °C
40 | CCCC(C)C [2-Methylpentane] | – | -23 | –
41 | C=C(CC)CC [2-ethyl-1-butene] | -26 | – | flash point [1]: -20 °C
42 | CC#CCCCC [2-heptyne] | 2 | – | flash point [4]: 8 °C
43 | C=C(C)CC [2-methyl-1-butene] | -47 | – | flash point [1]: -34 °C
44 | CCCCCCC(C)C [2-methyloctane] | 24 | – | –

Row | SMILES | flash point [°C] | flash point [3] [°C] | also measured
45 | C1=CC2CCC1C2 [2-norbornene] | -14 | – | flash point [1]: -15 °C
46 | CCC(C)(C)C(C)(C)CC [3,3,4,4-Tetramethylhexane] | – | 31 | –
47 | CCCC(C)(C)CC [3,3-Dimethylhexane] | – | -1 | –
48 | CCCCCC(C)(C)CC [3,3-Dimethyloctane] | – | 41 | –
49 | CCC(C)C(C)CC (stereo unspecified) [3,4-Dimethylhexane] | – | 4 | –
50 | CCC(C)CC(C)CC (stereo unspecified) [3,5-Dimethylheptane] | – | 15 | –
51 | CCCC(C)CC(C)CC (stereo unspecified) [3,5-Dimethyloctane] | – | 41 | –
52 | CCC(CC)C(C)(C)C [3-Ethyl-2,2-dimethylpentane] | – | 13 | –
53 | CCCCC(C)(CC)CC [3-Ethyl-3-methylheptane] | – | 41 | –
54 | CCC(C)C(CC)CC (stereo unspecified) [3-Ethyl-4-methylhexane] | – | 15 | –
55 | CCC(C)CC(CC)CC (stereo unspecified) [3-Ethyl-5-methylheptane] | – | 31 | –
56 | CCC(C)(CC)CC [3-Methyl-3-ethylpentane] | – | 3 | –
57 | CCCC(C)CC (stereo unspecified) [3-Methylhexane] | – | -15 | –
58 | CCCCCC(C)CC (stereo unspecified) [3-Methyloctane] | – | 24 | –
59 | CCC(C)CC [3-Methylpentane] | – | -32 | –
60 | C=CC(CC)CCC (stereo unspecified) [3-ethyl-1-hexene] | 1 | – | –
61 | CC(=O)O[Si](C)(OC(C)=O)OC(C)=O [Methyltriacetoxysilane] | – | – | flash point [5]: 85.00 °C
62 | CO[Si](C)(OC)OC [Methyltrimethoxysilane] | – | – | flash point [5]: 11.00 °C
63 | C[Si](C)(C)O[Si](C)(C)O[Si](C)(C)O[Si](C)(C)O[Si](C)(C)O[Si](C)(C)O[Si](C)(C)O[Si](C)(C)C [Octadecamethyloctasiloxane] | – | – | flash point [5]: 144.00 °C
64 | C[Si]1(C)O[Si](C)(C)O[Si](C)(C)O[Si](C)(C)O1 [Octamethylcyclotetrasiloxane] | – | – | flash point [5]: 57.00 °C
65 | C[Si](C)(C)O[Si](C)(C)O[Si](C)(C)C [Octamethyltrisiloxane] | – | – | flash point [5]: 30.00 °C
66 | Cl[SiH](Cl)c1ccccc1 [Phenyldichlorosilane] | – | – | flash point [5]: 60.00 °C

Row | SMILES | flash point [°C] | flash point [3] [°C] | also measured
67 | CCO[Si](OCC)(OCC)c1ccccc1 [Phenyltriethoxysilane] | – | – | flash point [5]: 120.00 °C
68 | CCCO[Si](OCCC)(OCCC)OCCC [Tetra-n-propoxysilane] | – | – | flash point [5]: 95.00 °C
69 | C[Si](C)(C)O[Si](C)(C)O[Si](C)(C)O[Si](C)(C)O[Si](C)(C)O[Si](C)(C)C [Tetradecamethylhexasiloxane] | – | – | flash point [5]: 102.00 °C
70 | CCO[Si](OCC)(OCC)OCC [Tetraethoxysilane] | – | – | flash point [5]: 50.00 °C
71 | CC[Si](CC)(CC)CC [Tetraethylsilane] | – | – | flash point [5]: 32.00 °C
72 | C=C[Si](C=C)(C=C)C=C [Tetravinylsilane] | – | – | flash point [5]: 18.00 °C
73 | Clc1ccc([Si](Cl)(Cl)Cl)cc1 [Trichloro(p-chlorophenyl)silane] | – | – | flash point [5]: 123.90 °C
74 | CC[Si](Cl)(CC)CC [Triethylchlorosilane] | – | – | flash point [5]: 30.00 °C
75 | CC(C)[SiH](C(C)C)C(C)C [Triisopropylsilane] | – | – | flash point [5]: 37.00 °C
76 | C[Si](C)(C)Br [Trimethylbromosilane] | – | – | flash point [5]: -3.00 °C
77 | C[Si](C)(C)c1ccccc1 [Trimethylphenylsilane] | – | – | flash point [5]: 40.00 °C
78 | C[Si](C)(C)OC(=O)C(F)(F)F [Trimethylsilyltrifluoroacetate] | – | – | flash point [5]: 0.00 °C
79 | C[Si](C)(C)O[SiH](O[Si](C)(C)C)O[Si](C)(C)C [Tris(trimethylsiloxy)silane] | – | – | flash point [5]: 50.00 °C
80 | C=C[Si](OCC)(OCC)OCC [Vinyltriethoxysilane] | – | – | flash point [5]: 34.00 °C
81 | C1CCC(C2CCCCC2)CC1 [bicyclohexyl] | 92 | – | –
82 | C1CC[C@H]2CCCC[C@H]2C1 [cis-decalin] | 58 | – | –
83 | CCCC[Si](Cl)(Cl)Cl [n-Butyltrichlorosilane] | – | – | flash point [5]: 54.00 °C
84 | CCCCCCC[Si](C)(Cl)Cl [n-Heptylmethyldichlorosilane] | – | – | flash point [5]: 66.00 °C
85 | CCCCCCC[Si](Cl)(Cl)Cl [n-Heptyltrichlorosilane] | – | – | flash point [5]: 64.00 °C
86 | CCCCc1ccccc1 [n-butylbenzene] | 50 | – | flash point [1]: 59 °C
87 | CC(C)(C)[Si](Cl)(Cl)Cl [t-Butyltrichlorosilane] | – | – | flash point [5]: 21.00 °C

Continued, in another order:

Row | flash point [°C] | flash point [3] [°C] | SMILES | also measured
88 | 7 | – | C[C@@H]1CCCC[C@H]1C (relative stereo) [trans-1,2-dimethylcyclohexane] | flash point [1]: 6 °C
89 | -17 | – | C=CC(CC)CC [3-ethyl-1-pentene] | –
90 | 15 | – | CCC(C(C)C)C(C)C [3-ethyl-2,4-dimethylpentane] | –
91 | -6 | – | CC=C(CC)CC [3-ethyl-2-pentene] | –
92 | -18 | – | C=CC(C)CCC (stereo unspecified) [3-methyl-1-hexene] | –
93 | – | 15 | CCCC(C)(C)CCC [4,4-Dimethylheptane] | –
94 | – | 15 | CCCC(CC)CCC [4-Ethylheptane] | –
95 | 2 | – | C=CCC(C)CCC (stereo unspecified) [4-methyl-1-heptene] | –
96 | 5 | – | CCCC(C)CCC [4-methylheptane] | –
97 | 41 | – | CCCC(CCC)CCC [4-propylheptane] | –
98 | 29 | – | C=CCC1CCCCC1 [allylcyclohexane] | –
99 | 6 | – | C[C@@H]1CCC[C@H](C)C1 [cis-1,3-dimethylcyclohexane] | flash point [1]: 5 °C
100 | -8 | – | C/C=C\CCCC [cis-2-heptene] | –
101 | -9 | – | CC/C=C\CCC [cis-3-heptene] | –
102 | -36 | – | C/C=C\C(C)C [cis-4-methyl-2-pentene] | –
103 | 14 | – | CC(C)C1CCCC1 [isopropylcyclopentane] | –
104 | 35 | – | CCCCC1CCCC1 [n-butylcyclopentane] | –
105 | 66 | – | CCCCCC1CCCCC1 [n-pentylcyclohexane] | –
106 | 16 | – | CCCC1CCCC1 [propylcyclopentane] | –
107 | -27 | – | C/C=C/CCC [trans-2-hexene] | flash point [1]: -20 °C
108 | -25 | – | CC/C=C/CC [trans-3-hexene] | –
